Measurements as given in article PMC4979471 (Cell Death Discovery, 2015).
Where two headings read alike, the source gives them in different places.

Experiments:
Assay in all cases: Kinase selectivity, P33-radiolabeled assay
Format in all cases: biochemical
Conditions in all cases: 10 μM ATP
[1] = molecular target: T1, ABL1 (Homo sapiens, UniProt P00519)
T1 construct: purchased Reaction Biology Corp
Procedure, shortened: (§1)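 Each enzyme was exposed to 10 μM compound, with duplicate measurements, in reactions containing 10 μM ATP. Numbers are remaining activity as a percent of the vehicle (DMSO) signal.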

[2] = molecular target: T2, CDK1/cyclin A (Homo sapiens, UniProt P06493)
T2 construct: purchased Reaction Biology Corp
T2 sequence (P06493 whole entry): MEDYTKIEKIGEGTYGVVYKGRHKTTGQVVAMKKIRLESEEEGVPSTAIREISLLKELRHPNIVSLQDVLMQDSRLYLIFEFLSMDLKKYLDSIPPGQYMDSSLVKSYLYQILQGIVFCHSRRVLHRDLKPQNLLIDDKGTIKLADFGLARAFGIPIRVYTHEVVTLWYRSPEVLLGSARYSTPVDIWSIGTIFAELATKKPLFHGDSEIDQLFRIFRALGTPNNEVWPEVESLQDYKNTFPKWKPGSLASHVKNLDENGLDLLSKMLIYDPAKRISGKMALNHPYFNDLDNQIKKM
T2 sequence (P20248 whole entry partner): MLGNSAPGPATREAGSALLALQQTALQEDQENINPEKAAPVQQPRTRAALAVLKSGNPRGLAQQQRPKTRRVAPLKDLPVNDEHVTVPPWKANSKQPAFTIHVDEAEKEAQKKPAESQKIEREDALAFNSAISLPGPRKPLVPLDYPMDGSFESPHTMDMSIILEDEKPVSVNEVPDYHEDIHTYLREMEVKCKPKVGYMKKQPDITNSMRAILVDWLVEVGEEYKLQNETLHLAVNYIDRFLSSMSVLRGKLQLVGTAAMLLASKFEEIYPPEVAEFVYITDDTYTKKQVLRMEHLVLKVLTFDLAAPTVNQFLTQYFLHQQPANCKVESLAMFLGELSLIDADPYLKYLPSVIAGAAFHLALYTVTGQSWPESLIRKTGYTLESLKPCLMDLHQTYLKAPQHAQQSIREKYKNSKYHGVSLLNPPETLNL
Procedure, shortened: as §1

[3] = molecular target: T3, CDK6/cyclin D1 (Homo sapiens, UniProt Q00534)
T3 construct: purchased Reaction Biology Corp
T3 sequence (Q00534 whole entry): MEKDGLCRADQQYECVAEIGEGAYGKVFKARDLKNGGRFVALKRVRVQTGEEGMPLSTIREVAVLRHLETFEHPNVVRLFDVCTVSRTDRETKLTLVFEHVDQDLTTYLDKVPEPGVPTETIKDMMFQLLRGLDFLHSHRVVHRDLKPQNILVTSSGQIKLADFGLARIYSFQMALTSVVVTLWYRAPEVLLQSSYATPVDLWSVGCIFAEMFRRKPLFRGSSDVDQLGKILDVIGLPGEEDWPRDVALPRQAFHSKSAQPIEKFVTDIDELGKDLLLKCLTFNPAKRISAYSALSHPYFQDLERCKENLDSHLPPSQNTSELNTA
T3 sequence (P24385 whole entry partner): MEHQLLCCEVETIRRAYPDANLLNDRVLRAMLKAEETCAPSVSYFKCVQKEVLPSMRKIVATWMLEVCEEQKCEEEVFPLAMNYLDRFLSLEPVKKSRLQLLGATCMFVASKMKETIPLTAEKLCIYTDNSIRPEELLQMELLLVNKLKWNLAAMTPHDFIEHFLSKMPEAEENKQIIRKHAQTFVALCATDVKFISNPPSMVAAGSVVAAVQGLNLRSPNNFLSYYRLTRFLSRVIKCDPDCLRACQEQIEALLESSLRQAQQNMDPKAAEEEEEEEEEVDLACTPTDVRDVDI
Procedure, shortened: as §1

[4] = molecular target: T4, HIPK1 (Homo sapiens, UniProt Q86Z02)
T4 construct: purchased Reaction Biology Corp
Procedure, shortened: as §1

[5] = molecular target: T5, LCK2/ICK (Homo sapiens, UniProt Q9UPZ9)
T5 construct: purchased Reaction Biology Corp
T5 sequence (Q9UPZ9 1-632): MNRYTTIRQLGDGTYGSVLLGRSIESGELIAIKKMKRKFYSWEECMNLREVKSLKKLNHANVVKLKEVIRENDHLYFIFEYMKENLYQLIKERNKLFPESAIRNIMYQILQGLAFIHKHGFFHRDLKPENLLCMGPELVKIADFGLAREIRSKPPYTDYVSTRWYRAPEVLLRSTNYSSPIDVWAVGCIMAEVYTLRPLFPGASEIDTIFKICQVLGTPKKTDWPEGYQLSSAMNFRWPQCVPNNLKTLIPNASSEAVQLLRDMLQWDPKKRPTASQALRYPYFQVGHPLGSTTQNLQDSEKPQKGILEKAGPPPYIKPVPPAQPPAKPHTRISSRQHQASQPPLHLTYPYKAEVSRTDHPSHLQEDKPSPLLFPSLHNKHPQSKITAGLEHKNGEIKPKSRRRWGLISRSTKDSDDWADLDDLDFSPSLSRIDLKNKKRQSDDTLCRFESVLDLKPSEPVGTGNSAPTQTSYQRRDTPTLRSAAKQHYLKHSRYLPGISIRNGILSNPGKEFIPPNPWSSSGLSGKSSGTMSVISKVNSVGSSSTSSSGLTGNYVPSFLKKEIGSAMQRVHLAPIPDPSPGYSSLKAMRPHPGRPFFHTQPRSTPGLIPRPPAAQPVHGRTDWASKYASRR
Procedure, shortened: as §1

[6] = molecular target: T6, PKCiota (Homo sapiens, UniProt P41743)
T6 construct: purchased Reaction Biology Corp
T6 sequence (P41743 1-596): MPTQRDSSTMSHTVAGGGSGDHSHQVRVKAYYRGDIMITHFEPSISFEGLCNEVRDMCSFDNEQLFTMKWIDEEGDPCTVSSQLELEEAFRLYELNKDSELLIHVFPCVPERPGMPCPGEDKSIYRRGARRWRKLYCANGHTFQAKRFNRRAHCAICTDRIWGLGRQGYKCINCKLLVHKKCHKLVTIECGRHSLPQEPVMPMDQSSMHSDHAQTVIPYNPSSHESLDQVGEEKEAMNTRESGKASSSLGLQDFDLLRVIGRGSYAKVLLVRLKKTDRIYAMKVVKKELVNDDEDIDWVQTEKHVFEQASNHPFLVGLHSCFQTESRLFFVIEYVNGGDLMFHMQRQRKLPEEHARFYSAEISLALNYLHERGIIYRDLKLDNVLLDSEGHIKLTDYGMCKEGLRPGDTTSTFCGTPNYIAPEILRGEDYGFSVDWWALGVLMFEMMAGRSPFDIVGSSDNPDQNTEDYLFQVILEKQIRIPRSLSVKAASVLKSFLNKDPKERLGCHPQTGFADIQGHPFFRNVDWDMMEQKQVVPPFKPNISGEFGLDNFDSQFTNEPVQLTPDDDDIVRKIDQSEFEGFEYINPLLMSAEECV
Procedure, shortened: as §1

[7] = molecular target: T7, RIPK3 (Homo sapiens, UniProt Q9Y572)
T7 construct: purchased Reaction Biology Corp
T7 sequence (Q9Y572 whole entry): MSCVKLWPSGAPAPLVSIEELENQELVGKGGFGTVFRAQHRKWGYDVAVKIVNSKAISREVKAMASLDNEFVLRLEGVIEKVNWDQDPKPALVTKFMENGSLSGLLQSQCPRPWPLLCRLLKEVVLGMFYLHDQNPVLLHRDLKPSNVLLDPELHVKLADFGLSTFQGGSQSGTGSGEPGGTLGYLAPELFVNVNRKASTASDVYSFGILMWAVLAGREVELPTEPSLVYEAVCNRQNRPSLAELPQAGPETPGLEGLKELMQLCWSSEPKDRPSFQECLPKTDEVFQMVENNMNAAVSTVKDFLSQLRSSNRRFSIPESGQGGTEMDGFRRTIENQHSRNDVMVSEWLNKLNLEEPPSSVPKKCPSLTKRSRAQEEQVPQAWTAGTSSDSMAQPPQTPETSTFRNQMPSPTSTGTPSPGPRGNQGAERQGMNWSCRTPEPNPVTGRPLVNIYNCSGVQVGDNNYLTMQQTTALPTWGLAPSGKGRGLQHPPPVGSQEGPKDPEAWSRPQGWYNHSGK
Procedure, shortened: as §1

[8] = molecular target: T8, SLK/STK2 (Homo sapiens, UniProt Q9H2G2)
T8 construct: purchased Reaction Biology Corp
T8 sequence (Q9H2G2 whole entry): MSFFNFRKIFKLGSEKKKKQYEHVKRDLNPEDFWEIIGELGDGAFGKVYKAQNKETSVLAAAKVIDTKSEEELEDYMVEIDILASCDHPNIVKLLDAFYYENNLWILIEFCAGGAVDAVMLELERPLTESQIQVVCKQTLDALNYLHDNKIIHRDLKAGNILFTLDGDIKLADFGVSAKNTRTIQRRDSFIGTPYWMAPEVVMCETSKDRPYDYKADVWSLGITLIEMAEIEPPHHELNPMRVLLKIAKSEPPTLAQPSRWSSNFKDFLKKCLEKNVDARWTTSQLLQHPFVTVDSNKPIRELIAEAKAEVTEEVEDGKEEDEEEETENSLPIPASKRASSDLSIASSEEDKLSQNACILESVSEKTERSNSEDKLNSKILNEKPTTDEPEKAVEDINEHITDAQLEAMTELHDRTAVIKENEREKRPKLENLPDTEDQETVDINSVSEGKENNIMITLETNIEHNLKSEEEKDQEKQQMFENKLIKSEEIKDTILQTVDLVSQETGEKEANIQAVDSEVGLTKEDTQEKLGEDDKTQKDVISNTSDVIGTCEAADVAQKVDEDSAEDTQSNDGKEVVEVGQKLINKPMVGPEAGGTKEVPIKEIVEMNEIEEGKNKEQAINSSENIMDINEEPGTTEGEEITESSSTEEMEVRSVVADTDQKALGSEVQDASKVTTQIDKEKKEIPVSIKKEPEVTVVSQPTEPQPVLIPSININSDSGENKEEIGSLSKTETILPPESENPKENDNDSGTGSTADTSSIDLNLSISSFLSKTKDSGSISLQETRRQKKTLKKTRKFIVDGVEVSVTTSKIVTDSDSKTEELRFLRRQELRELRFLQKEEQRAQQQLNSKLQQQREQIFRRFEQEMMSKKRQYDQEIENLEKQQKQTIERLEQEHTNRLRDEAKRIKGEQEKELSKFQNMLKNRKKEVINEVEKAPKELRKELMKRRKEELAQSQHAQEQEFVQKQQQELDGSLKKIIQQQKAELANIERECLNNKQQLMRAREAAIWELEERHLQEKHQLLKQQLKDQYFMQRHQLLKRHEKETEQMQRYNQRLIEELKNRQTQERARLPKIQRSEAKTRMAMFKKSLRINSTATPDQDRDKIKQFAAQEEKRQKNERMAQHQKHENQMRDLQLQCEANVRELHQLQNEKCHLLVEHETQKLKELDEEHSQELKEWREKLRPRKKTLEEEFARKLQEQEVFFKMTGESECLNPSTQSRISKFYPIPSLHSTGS
Procedure, shortened: as §1

[9] = molecular target: T9, SRPK2 (Homo sapiens, UniProt P78362)
T9 construct: purchased Reaction Biology Corp
T9 sequence (P78362 whole entry): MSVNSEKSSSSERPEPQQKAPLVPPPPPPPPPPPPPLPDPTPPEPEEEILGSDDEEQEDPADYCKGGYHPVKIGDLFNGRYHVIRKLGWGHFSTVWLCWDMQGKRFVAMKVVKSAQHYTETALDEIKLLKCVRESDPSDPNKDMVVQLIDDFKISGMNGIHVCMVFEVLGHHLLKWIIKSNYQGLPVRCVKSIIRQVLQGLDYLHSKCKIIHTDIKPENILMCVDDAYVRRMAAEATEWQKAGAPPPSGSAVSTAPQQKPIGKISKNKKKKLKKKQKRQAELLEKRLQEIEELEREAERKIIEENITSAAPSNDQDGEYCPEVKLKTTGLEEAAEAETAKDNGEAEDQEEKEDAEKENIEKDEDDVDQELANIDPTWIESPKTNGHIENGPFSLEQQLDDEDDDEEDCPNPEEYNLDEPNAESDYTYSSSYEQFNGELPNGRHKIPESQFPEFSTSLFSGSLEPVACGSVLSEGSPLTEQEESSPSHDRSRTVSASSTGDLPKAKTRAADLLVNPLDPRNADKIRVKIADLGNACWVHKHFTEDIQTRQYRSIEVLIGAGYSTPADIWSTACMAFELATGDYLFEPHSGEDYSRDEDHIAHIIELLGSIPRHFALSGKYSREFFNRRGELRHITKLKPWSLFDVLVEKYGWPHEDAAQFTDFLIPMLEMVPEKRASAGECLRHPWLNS
Procedure, shortened: as §1

[10] = read-out: % Enzyme Activity (relative to DMSO controls) AVG
[11] = read-out: % Enzyme Activity (relative to DMSO controls) Data 1
[12] = read-out: % Enzyme Activity (relative to DMSO controls) Data 2

T1 sequence (P00519 whole entry): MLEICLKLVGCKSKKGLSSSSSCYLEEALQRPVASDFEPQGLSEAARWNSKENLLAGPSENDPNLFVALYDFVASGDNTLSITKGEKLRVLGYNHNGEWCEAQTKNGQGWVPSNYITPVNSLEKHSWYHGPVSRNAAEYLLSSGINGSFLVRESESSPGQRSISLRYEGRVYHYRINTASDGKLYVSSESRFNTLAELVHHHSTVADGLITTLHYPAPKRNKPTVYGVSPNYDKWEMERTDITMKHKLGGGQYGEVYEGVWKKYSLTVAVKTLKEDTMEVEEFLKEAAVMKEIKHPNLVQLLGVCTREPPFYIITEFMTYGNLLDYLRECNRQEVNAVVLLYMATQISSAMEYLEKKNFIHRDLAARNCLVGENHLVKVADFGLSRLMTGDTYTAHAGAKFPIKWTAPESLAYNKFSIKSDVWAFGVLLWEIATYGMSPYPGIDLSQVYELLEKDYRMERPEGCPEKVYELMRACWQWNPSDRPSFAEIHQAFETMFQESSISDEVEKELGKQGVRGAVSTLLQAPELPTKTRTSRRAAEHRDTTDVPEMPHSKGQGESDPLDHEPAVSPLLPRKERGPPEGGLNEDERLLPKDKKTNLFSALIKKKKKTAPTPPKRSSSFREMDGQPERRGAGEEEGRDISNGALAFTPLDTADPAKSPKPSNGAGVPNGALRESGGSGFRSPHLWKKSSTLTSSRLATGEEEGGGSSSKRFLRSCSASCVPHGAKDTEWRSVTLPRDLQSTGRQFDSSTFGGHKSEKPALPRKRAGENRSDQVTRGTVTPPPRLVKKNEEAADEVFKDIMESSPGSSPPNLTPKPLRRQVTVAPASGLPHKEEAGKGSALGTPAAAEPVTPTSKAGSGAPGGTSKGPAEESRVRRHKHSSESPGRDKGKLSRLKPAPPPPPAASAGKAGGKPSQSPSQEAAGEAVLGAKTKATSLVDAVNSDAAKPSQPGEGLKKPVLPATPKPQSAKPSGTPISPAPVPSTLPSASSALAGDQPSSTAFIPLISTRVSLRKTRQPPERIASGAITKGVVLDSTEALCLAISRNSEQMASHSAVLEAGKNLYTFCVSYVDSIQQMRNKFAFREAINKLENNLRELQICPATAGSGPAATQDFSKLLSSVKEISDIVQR

Q: Which remaining activity at 10 µM [1, 10] does the source give for `CC(C)(C)C(=O)N1N=CC[C@H]1c1ccccc1` [GSK′963] here?
A: 99.3%

Q: What about the remaining activity at 10 µM [1, 11] of the same compound?
A: 102%

Q: What about the remaining activity at 10 µM [1, 12] of the same compound?
A: 96.9%

Q: What about the remaining activity at 10 µM [2, 10] of the same compound?
A: 105%

Q: And the remaining activity at 10 µM [2, 11]?
A: 107%

Q: And the remaining activity at 10 µM [2, 12]?
A: 102%

Q: And the remaining activity at 10 µM [3, 10]?
A: 93.7%

Q: And the remaining activity at 10 µM [3, 11]?
A: 94.2%

Q: And the remaining activity at 10 µM [3, 12]?
A: 93.2%

Q: What about the remaining activity at 10 µM [4, 10] of the same compound?
A: 94.3%

Q: And the remaining activity at 10 µM [4, 11]?
A: 95.2%

Q: What about the remaining activity at 10 µM [4, 12] of the same compound?
A: 93.3%

Q: What about the remaining activity at 10 µM [5, 10] of the same compound?
A: 101%

Q: What about the remaining activity at 10 µM [5, 11] of the same compound?
A: 100%

Q: What about the remaining activity at 10 µM [5, 12] of the same compound?
A: 101%

Q: And the remaining activity at 10 µM [6, 10]?
A: 109%

Q: What about the remaining activity at 10 µM [6, 11] of the same compound?
A: 105%

Q: And the remaining activity at 10 µM [6, 12]?
A: 114%

Q: What about the remaining activity at 10 µM [7, 10] of the same compound?
A: 99.3%

Q: And the remaining activity at 10 µM [7, 11]?
A: 100%

Q: And the remaining activity at 10 µM [7, 12]?
A: 98.7%

Q: What about the remaining activity at 10 µM [8, 10] of the same compound?
A: 86.9%

Q: And the remaining activity at 10 µM [8, 11]?
A: 85.3%

Q: What about the remaining activity at 10 µM [8, 12] of the same compound?
A: 88.5%

Q: What about the remaining activity at 10 µM [9, 10] of the same compound?
A: 102%

Q: What about the remaining activity at 10 µM [9, 11] of the same compound?
A: 102%

Q: And the remaining activity at 10 µM [9, 12]?
A: 102%
